Values of other authors, collected in patent publication US20200172966A1 (YAMAGUCHI UNIVERSITY, priority 2015, published 2020).

Settings: patients identified as non-high-risk based on polymorphisms of the UGT1A gene; cited from earlier work

CCc1c2c(nc3ccc(OC(=O)N4CCC(N5CCCCC5)CC4)cc13)-c1cc3c(c(=O)n1C2)COC(=O)[C@]3(O)CC [irinotecan, 1,4′-Bipiperidine-1′-carboxylic acid (S)-4,11-diethyl-3,4,12,14-tetrahydro-4-hydroxy-3,14-dioxo-1H-pyrano[3′,4′:6,7]indolizino[1,2-b]quinolin-9-yl ester]
patients with a side effect: 43%
